Measured values as given in patent EP2230235A1, “Botryosphaerones, novel depsidones and their use as medicaments” (Leibniz-Institut für Naturstoff-Forschung und …, priority 2009, dated 2010).
In brackets after ≈: the same amount, converted by molar mass. Where two headings read alike, the source gives them in different places.

Legend:
Assay type in all cases: cell-based
Bacillus subtilis = test: MIC determination / antibacterial activity, agar diffusion method; conditions: for antimicrobial efficacy / antibacterial activity: B. subtilis, result in words
Source text: (§1) Antifungal activities were studied qualitatively by agar diffusion tests according to the literature (Stuttgart, D. A. V., European Pharmacopoeia, 3rd ed.1997, 13, 118; Afonin, S.; Glaser, R. W.; Berditchevskaia, M.; Wadhwani, P.; Guhrs, K. H.; Mollmann, U.; Perner, A.; Ulrich, A. S. Chembiochem. 2003, 4, (11), 1151-1163; Standards, N. C. f. C. L., Reference Method for Broth Dilution Susceptibility Testing of Filamentous Fungi; Approved Standard. M38-A, Wayne, PA, USA, NCCls 2002, 22) and quantitatively by determination of minimal inhibitory concentration (MIC) according to the NCCLS guidelines using the broth microdilution method. Fifty microliters of the test compound solution in methanol were serially diluted by factor two with the culture medium (RPMI 1640 with L-glutamine, MOPS and without sodium bicarbonate, LONZA Verviers SPRL, Belgium). Then, the wells were inoculated with 50 µL of the test organism to give a final concentration of 6x10^3 CFU mL^-1. After incubation of the microtiter plates at 37°C (Aspergillus terreus) for 24 h, the MIC-values were read with a Nepheloscan Ascent 1.4 automatic plate reader (Lab systems, Vantaa, Finnland) as the lowest dilution of compound allowing no visible growth. The MIC for Fusarium oxysporum and Bacillus subtilis was determined by the agar diffusion method. Fifty microliters of each of the 12 serial twofold dilutions were filled in agar (malt extract agar from Roth, Karlsruhe, Germany; seeded with 0.5 mL of a pretested mycelial solution) holes of 9 mm in diameter. After incubation for 24 h the MIC was read as the lowest concentration giving an inhibition zone.

Aspergillus terreus = test: MIC determination, broth microdilution method (NCCLS guidelines); conditions: A. terreus; for antimicrobial efficacy: result in words; for MIC: broth microdilution, 37°C, 24 h
Source text: as §1

Fusarium oxysporum = test: MIC determination, agar diffusion method; conditions: 24 h
Source text: as §1, with “Fifty microliters of each of the 12 serial twofold dilutions were filled in agar (malt extract agar from Roth, Karlsruhe, Germany; seeded with 0.5 mL of a pretested mycelial solution) holes of 9 mm in diameter. After incubation for 24 h the MIC was read as the lowest concentration giving an inhibition zone.” left out

HUVEC = test: Antiproliferative assay (methylene blue staining); conditions: Homo sapiens
Description: (§2) Antiproliferative and Cytotoxic Assays: Cells and culture conditions. Cells of HUVEC (ATCC CRL-1730), K-562 (DSM ACC 10) and HeLa (DSM ACC 57) were cultured in DMEM (CAMBREX 12-[…]), RPMI 1640 (CAMBREX 12-[…]) and RPMI 1640 (CAMBREX 12-[…]) respectively. All cells were grown in the appropriate cell culture medium supplemented with 10 mL L^-1 ultraglutamine 1 (Cambrex 17-[…]/U1), 500 μ[…] gentamicin sulfate (CAMBREX 17-518Z), and 10 % heat inactivated fetal bovine serum (PAA A15-144) at 37 °C in high density polyethylene flasks (NUNC 156340). Antiproliferative assay. The test substances were dissolved in DMSO before being diluted in DMEM. The adherent cells were harvested at the logarithmic growth phase after soft trypsinization, using 0.25 % trypsin in PBS containing 0.02 % EDTA (Biochrom KG L 2163). For each experiment, approximately 10.000 cells were seeded with 0.1 mL culture medium per well of the 96-well microplates (NUNC 167008). Method of evaluation. For estimating the influence of chemical compounds on cell proliferation of K-562, the numbers of viable cells present in multiwell plates were determined via CellTiter-Blue® assay. The indicator dye resazurin was used to measure the metabolic capacity of cells as an indicator of cell viability. […] The optical densities were measured at 660 nm in SUNRISE microplate reader (TECAN). […]

K-562 = test: Antiproliferative assay (CellTiter-Blue); conditions: Homo sapiens, K562; read-out: Gl50 (K-562)
Description: as §2

HeLa = test: Cytotoxic assay (methylene blue staining); conditions: Homo sapiens, 72 hours incubation, read-out: Cytotoxicity CC50 (HeLa)
Description: Antiproliferative and Cytotoxic Assays: Cells and culture conditions. Cells of HUVEC (ATCC CRL-1730), K-562 (DSM ACC 10) and HeLa (DSM ACC 57) were cultured in DMEM (CAMBREX 12-614F), RPMI 1640 (CAMBREX 12-167F) and RPMI 1640 (CAMBREX 12-167F) respectively. All cells were grown in the appropriate cell culture medium supplemented with 10 mL L^-1 ultraglutamine 1 (Cambrex 17-605E/U1), 500 µL L^-1 gentamicin sulfate (CAMBREX 17-518Z), and 10 % heat inactivated fetal bovine serum (PAA A15-144) at 37 °C in high density polyethylene flasks (NUNC 156340).
Cytotoxic assay. For the cytotoxic assay, HeLa cells were pre-incubated for 48 hours without the test substances. The dilutions of the compounds were carried out carefully on the subconfluent monolayers of HeLa cells after the pre-incubation time. Cells were incubated with dilutions of the test substances for 72 hours at 37 °C in a humidified atmosphere and 5 % CO2.
Method of evaluation. For estimating the influence of chemical compounds on cell proliferation of K-562, the numbers of viable cells present in multiwell plates were determined via CellTiter-Blue® assay. The indicator dye resazurin was used to measure the metabolic capacity of cells as an indicator of cell viability. […] The optical densities were measured at 660 nm in SUNRISE microplate reader (TECAN). […]

[1] = Aspergillus terreus, read-out: MIC

Compound | antimicrobial efficacy / antibacterial activity (Bacillus subtilis) | MIC (Bacillus subtilis; Bacillus subtilis, 24 h) [µg/mL] | antibacterial activity (Bacillus subtilis; Bacillus subtilis, agar diffusion assays, 400 µg mL^-1) | antimicrobial efficacy (Aspergillus terreus) | MIC (Aspergillus terreus; [1]) [µg/mL] | MIC (Fusarium oxysporum) [µg/mL] | GI50 (HUVEC) [µM] | GI50 (K-562) [µM] | CC50 (HeLa) [µM] | MIC (Aspergillus terreus) [µg/mL]
Cc1cc(O)c(C)c2c1Oc1c(CO)c(O)cc(C)c1C(=O)O2 [Compound 3, botryosphaerone C] | antibacterial activity | 400 (≈ 1260 µM) | antibacterial activity | – | – | – | – | – | – | –
Cc1cc(O)c(C)c2c1Oc1c(C=O)c(O)cc(C)c1C(=O)O2 [Compound 2, Botryosphaerone B] | active | – | – | active | 15.6 (≈ 49.7 µM) | 75 (≈ 239 µM) | 0.07 | 0.003 | 36.4 | –
botryosphaerone D [Compound 4] | antibacterial activity | – | – | – | – | – | – | – | – | –
C[C@@H]1[C@H](O)[C@@H](C)/C=C/C=C/CC/C=C/C=C/C=C/C=C/C(O[C@H]2O[C@H](C)[C@@H](O)[C@H](N)[C@@H]2O)CC2O[C@](O)(CC(O)C(O)CCC(O)CC(O)CC(O)CC(=O)O[C@H]1C)CC(O)C2C(=O)O (stereo partly shown) [nystatin, reference compound] | – | – | – | – | – | – | – | – | – | 12.50 (≈ 13.5 µM)
Cc1cc(O)cc2c1Oc1c(C=O)c(O)cc(C)c1C(=O)O2 [Compound 1, botryosphaerone A] | active | – | – | active | 7.81 (≈ 26 µM) | 57.5 (≈ 191 µM) | 1.67 | 0.84 | 97 | –
